{"source": "paper PMC4059507", "about": "(Archives of biochemistry and biophysics, 2013)", "key": {"UGT1A9 [1]": {"molecular_target": "T1, UGT1A9 (Homo sapiens, UniProt O60656)", "T1 sequence (O60656 26-530)": "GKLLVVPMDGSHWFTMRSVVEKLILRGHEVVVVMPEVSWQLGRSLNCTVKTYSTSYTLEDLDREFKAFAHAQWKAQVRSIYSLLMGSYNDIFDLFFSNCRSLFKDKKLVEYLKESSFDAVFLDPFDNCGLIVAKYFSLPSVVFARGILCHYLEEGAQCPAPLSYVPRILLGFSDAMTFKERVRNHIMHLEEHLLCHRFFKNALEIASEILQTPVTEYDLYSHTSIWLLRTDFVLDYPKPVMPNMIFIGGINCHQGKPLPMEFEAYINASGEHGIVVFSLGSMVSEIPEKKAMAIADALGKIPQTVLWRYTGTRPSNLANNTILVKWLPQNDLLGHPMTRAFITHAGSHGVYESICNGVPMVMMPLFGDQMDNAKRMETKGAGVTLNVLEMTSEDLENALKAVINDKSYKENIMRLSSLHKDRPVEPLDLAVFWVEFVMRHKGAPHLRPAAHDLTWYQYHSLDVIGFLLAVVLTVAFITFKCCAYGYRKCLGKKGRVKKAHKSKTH", "conditions": "substrate inhibition model, propofol glucuronidation"}, "UGT1A9 [2]": {"molecular_target": "T1, UGT1A9"}, "UGT2B7": {"molecular_target": "T2, UGT2B7 (Homo sapiens, UniProt P16662)", "T2 sequence (P16662 24-529)": "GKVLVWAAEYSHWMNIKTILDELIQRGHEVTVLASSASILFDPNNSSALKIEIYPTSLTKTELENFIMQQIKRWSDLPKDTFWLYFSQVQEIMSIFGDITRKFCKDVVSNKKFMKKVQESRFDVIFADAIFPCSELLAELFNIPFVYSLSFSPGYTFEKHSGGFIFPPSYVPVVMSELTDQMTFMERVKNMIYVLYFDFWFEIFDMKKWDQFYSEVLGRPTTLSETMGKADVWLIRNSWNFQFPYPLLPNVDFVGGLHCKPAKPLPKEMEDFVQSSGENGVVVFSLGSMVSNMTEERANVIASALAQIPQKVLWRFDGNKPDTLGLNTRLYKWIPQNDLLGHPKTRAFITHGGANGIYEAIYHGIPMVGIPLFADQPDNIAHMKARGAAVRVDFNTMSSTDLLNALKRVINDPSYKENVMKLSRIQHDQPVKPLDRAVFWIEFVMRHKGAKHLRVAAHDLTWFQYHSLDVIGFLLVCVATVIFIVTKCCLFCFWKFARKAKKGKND", "conditions": "data not shown"}}, "note": "Like-named read-outs stand apart in the source and are kept apart here.", "data": [{"molecule": "CC(C)c1cccc(C(C)C)c1O", "note": "[propofol]", "values": [{"measurement": "Ki", "setting": "UGT1A9 [1]; human hepatocytes treated with UGT1A9 siRNA", "result": "448 ± 203", "unit": "µM"}, {"measurement": "Ki", "setting": "UGT1A9 [1]; human hepatocytes treated with UGT2B7 siRNA", "result": "199 ± 88.9", "unit": "µM"}, {"measurement": "Ki", "setting": "UGT1A9 [1]; human hepatocytes, OPTI Only", "result": "362 ± 31.3", "unit": "µM"}, {"measurement": "Ki", "setting": "UGT1A9 [1]; human hepatocytes, TR Only", "result": "521 ± 46.3", "unit": "µM"}]}, {"molecule": "propofol glucuronide", "values": [{"measurement": "UGT1A9 activity remained", "setting": "UGT1A9 [2]", "result": "greater than 60%"}, {"measurement": "inhibition of 2,6-dimethylphenol glucuronidation", "setting": "UGT1A9 [2]", "result": "only weak inhibition"}, {"measurement": "inhibition of UGT2B7-catalyzed morphine glucuronidation", "setting": "UGT2B7", "result": "No inhibition"}]}]}
